The text below walks through data of patent US11691962B2 (eXIthera Pharmaceuticals, Inc., priority 2018, dated 2023).

Where only a bound is given, the exact number is not on record here.

As usually defined, the IC50 is the concentration that gives 50% inhibition.

In the assay the target is Factor XIa (Homo sapiens (Human), UniProt P03951). As to the kind of experiment: Factor XIa enzyme inhibition assay (dose response, fluorogenic AMC substrate). It is filed as biochemical. To be noted: read-out: hFXIa IC50. How it is done: • Assay buffer: 20 mM Hepes, pH 7.4; 150 mM NaCl; 0.02% Tween 20 • Compounds: 10 mM stocks in DMSO • Substrate: 20 mM Glp-Pro-Arg-AMC, 25 mg/2.3 mL H2O (store at +4° C.) [Factor XIa, thrombin, and trypsin] • 20 mM Pro-Phe-Arg-AMC (Bachem I-1295), 25 mg/2.2 mL H2O • or Boc-Leu-Gly-Arg-AMC (Bachem I-1105), 25 mg/2.07 mL H2O • (store at +4° C.) [Factor Xa] • Enzyme: Factor XIa; 0.25 μM in 50% glycerol (20 μg/mL) • Trypsin; 0.2 μM in 50% glycerol (4.8 μg/mL) • Thrombin; 0.2 μM in 50% glycerol (7.34 μg/mL) • Factor Xa; 0.2 μM in 50% glycerol (9.2 μg/mL) • These stocks are aliquoted (˜100 μL/aliquot) and stored at −20° C. Methods: • 1. Dilute the substrate to 100 μM in assay buffer (30 μL/6 mL). The enzyme is diluted to 0.5 nM just prior to use (12 μL/6 mL for Factor XIa; 15 μL/6 mL for all of the rest.) • 2. Pipette 50 μL of substrate into each well of the 96 well (12×8) microtiter plate. (Column 1 is used as the 100% activity control and receives no compound, and Column 12 is the blank and receives no enzyme.) Add an additional 46 μL to column 2. • 3. Pipette 4 μL of each compound into the appropriate well in column 2 of the plate (unknowns assayed in triplicate, standard assayed in duplicate). The final compound concentration will be […] of the stock. • 4. Serially two-fold dilute the compound by mixing the sample in column 2, removing 50 μL to the next well (column 3), mix and remove to column 4, etc. until column 11. After mixing column 11, remove 50 μL and discard. • 5. Pipette 50 μL of buffer into column 12. Initiate the reaction by adding 50 μL of enzyme solution to each well of columns 1-11 as rapidly as possible. • 6. Read the plate in a spectrophotometer (SpectraMax) at 30° C., wherein each well is measured every 60 s for 30 min. For Factor Xa assays, each well is measured every 1 min for a total of 60 min. • 7. For Factor XIa assays, the compounds are assayed, in duplicate, at 3 different starting concentrations, 20, 2, and 0.2 μM; 1:10, 1:100, and 1:1000 dilution of 10 mM stock or at 2, 0.2, and 0.02 μM; 1:100, 1:1000, and 1:10,000 dilution of 10 mM stock. Data for each concentration are combined for graphing and data fitting. • 8. Data can be used both for estimation of IC50 and for estimation of Kon.
Factor XIa, sequence (P03951 388-625): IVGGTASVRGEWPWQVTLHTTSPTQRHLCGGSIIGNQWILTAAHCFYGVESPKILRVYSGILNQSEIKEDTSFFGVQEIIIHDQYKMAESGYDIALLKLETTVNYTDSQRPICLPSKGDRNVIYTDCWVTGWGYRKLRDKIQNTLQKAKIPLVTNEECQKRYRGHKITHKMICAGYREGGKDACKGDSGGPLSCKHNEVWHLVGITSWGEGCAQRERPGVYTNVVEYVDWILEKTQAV
Factor XIa, sequence (P03951 19-387 partner): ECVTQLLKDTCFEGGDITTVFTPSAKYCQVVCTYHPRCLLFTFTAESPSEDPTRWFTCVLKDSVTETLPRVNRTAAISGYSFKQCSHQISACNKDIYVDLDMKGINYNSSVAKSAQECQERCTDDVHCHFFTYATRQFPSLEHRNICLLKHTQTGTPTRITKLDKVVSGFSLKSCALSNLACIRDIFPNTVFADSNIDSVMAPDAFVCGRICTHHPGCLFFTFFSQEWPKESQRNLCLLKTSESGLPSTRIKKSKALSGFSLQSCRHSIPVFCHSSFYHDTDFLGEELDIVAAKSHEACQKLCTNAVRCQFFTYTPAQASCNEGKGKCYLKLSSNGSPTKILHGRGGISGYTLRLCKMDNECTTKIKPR
Potential inhibitors of Factor XIa were evaluated using the following assay.
PyroGlu-Pro-Arg-7-methylaminocourin (AMC), available from CPC Scientific, Inc., is based on the substrate pyro-Glu-Pro-Arg-pNA (S-2366), available from Diapharma Group, Inc. (Columbus, Ohio), wherein the p-nitroanaline group is replaced with 7-methylaminocoumarin (AMC).
The final concentration of the substrate in the assay was 50 μM, and the final concentration of the enzyme was 0.25 nM. Inhibitors were tested by serial dilution over an appropriate range to yield a dose response curve for determination of the inhibitors' IC50 value. The assay mixture was read every minute for 30 minutes in order to generate progress curves. The plates were read in a Spectramax m5 Multimode Plate Reader (Molecular Devices LLC, Sunnyvale, Calif.). Dose response curves were fit to Equation 1 below in which A is the maximum inhibition, B is the minimum inhibition, C is the IC50, and D is the Hill coefficient. Y=[(A−B)/(1+(X/C)^D)]+B (Equation 1)
On to `CN(C(=O)[C@@H]1[C@@H](Cc2ccnc(N)c2)C(=O)N1C(=O)NC(C1CCCCC1)C(F)(F)F)c1ccnn1C` (stereo in doubt) [Compound 1-6, (2S,3R)-3-((2-aminopyridin-4-yl)methyl)-N2-(1-methyl-1H-pyrazol-5-yl)-N1-((R)-1-cyclohexyl-2,2,2-trifluoroethyl)-N2-methyl-4-oxoazetidine-1,2-dicarboxamide], for which the half-inhibitory concentration (IC50) fell in the range of 10 to 100 nM.
As for `Cc1cc(C[C@H]2C(=O)N(C(=O)NC(C3CCCCC3)C(F)(F)F)[C@@H]2C(=O)N(C)c2nccn2C)cc(N)n1` (stereo in doubt) [Compound 1-77, (2S,3R)-3-((2-amino-6-methylpyridin-4-yl)methyl)-N2-(1-methyl-1H-imidazol-2-yl)-N1-((R)-1-cyclohexyl-2,2,2-trifluoroethyl)-N2-methyl-4-oxoazetidine-1,2-dicarboxamide], the half-inhibitory concentration (IC50) was in the range of 10 to 100 nM.
For the molecule `CC[C@@H](NC(=O)N1C(=O)[C@H](Cc2ccnc(N(C)C)c2)[C@H]1C(=O)N(C)c1cnn(C)c1)c1ccccc1` [Compound 1-5, (2S,3R)-3-((2-dimethylaminopyridin-4-yl)methyl)-N2-(1-methyl-1H-pyrazol-4-yl)-N1-((R)-1-phenylpropyl)-N2-methyl-4-oxoazetidine-1,2-dicarboxamide], the IC50 is above 1000 nM.
On to `CC[C@H](c1cccc(Cl)c1)N(C)C(=O)N1C(=O)[C@H](Cc2ccnc(N)c2)[C@H]1C(=O)N(C)c1ccn(C)n1` [Compound 1-7, (2S,3R)-3-((2-aminopyridin-4-yl)methyl)-N2-(1-methyl-1H-pyrazol-3-yl)-N1-((R)-1-(3-chlorophenyl)propyl)-N1-methyl-N2-methyl-4-oxoazetidine-1,2-dicarboxamide], for which the IC50 lay in the range of 10 to 100 nM.
On to `CC[C@@H](NC(=O)N1C(=O)[C@H](Cc2ccnc(N)c2)[C@H]1C(=O)N(C)c1ccn(C)n1)c1cccc(C)c1` [Compound 1-14, (2S,3R)-3-((2-aminopyridin-4-yl)methyl)-N2-(1-methyl-1H-pyrazol-3-yl)-N1-((R)-1-(3-methylphenyl)propyl)-N2-methyl-4-oxoazetidine-1,2-dicarboxamide], for which the IC50 lay within 10 to 100 nM.
Consider `CC[C@@H](NC(=O)N1C(=O)[C@H](Cc2ccnc(N)c2)[C@H]1C(=O)N(C)c1ccn(C)n1)c1ccc(C)nc1` [Compound 1-20, (2S,3R)-3-((2-aminopyridin-4-yl)methyl)-N2-(1-methyl-1H-pyrazol-3-yl)-N1-((R)-1-(6-methylpyridin-3-yl)propyl)-N2-methyl-4-oxoazetidine-1,2-dicarboxamide], for which the IC50 is below 10 nM.
The same measure for `CC[C@@H](NC(=O)N1C(=O)[C@H](Cc2ccnc(N)c2)[C@H]1C(=O)N(C)c1ccsn1)c1ccccc1` [Compound 1-21, (2S,3R)-3-((2-aminopyridin-4-yl)methyl)-N2-(3-isothiazolyl)-N1-((R)-1-phenylpropyl)-N2-methyl-4-oxoazetidine-1,2-dicarboxamide]: 10 to 100 nM.
Take `CC[C@@H](NC(=O)N1C(=O)[C@H](Cc2ccnc(NC(=O)OC(C)(C)C)c2)[C@H]1C(=O)N(C)c1cnn(C)c1)c1cccc(Cl)c1` [Compound 1-23, (2S,3R)-3-((2-(((tert-butoxy)carbonyl)amino)pyridin-4-yl)methyl)-N2-(1-methyl-1H-pyrazol-4-yl)-N1-((R)-1-(3-chlorophenyl)propyl)-N2-methyl-4-oxoazetidine-1,2-dicarboxamide]: the IC50 was above 1000 nM.
Consider `CC[C@@H](NC(=O)N1C(=O)[C@H](Cc2ccnc(N)c2)[C@H]1C(=O)N(C)c1cscn1)c1cccc(C)c1` [Compound 1-24, (2S,3R)-3-((2-aminopyridin-4-yl)methyl)-N2-(4-thiazolyl)-N1-((R)-1-(3-methylphenyl)propyl)-N2-methyl-4-oxoazetidine-1,2-dicarboxamide], for which the IC50 was below 10 nM.
The same measure for `CN(C(=O)[C@@H]1[C@@H](Cc2ccnc(N)c2)C(=O)N1C(=O)NCc1cccc(Cl)c1)c1cnn(C)c1` [Compound 1-27, (2S,3R)-3-((2-aminopyridin-4-yl)methyl)-N2-(1-methyl-1H-pyrazol-4-yl)-N1-((3-chlorophenyl)methyl)-N2-methyl-4-oxoazetidine-1,2-dicarboxamide]: 10 to 100 nM; for `CN(C(=O)[C@@H]1[C@@H](Cc2ccnc(N)c2)C(=O)N1C(=O)NCc1cccc(Cl)c1)c1cccs1` [Compound 1-29, (2S,3R)-3-((2-aminopyridin-4-yl)methyl)-N2-(thiophen-2-yl)-N1-((3-chlorophenyl)methyl)-N2-methyl-4-oxoazetidine-1,2-dicarboxamide]: 10 to 100 nM; for `CN(C(=O)[C@@H]1[C@@H](Cc2ccnc(N)c2)C(=O)N1C(=O)N[C@@H](C1CC1)C(F)(F)F)c1ccn(C)n1` [Compound 1-30, (2S,3R)-3-((2-aminopyridin-4-yl)methyl)-N2-(1-methyl-1H-pyrazol-3-yl)-N1-((S)-1-cyclopropyl-2,2,2-trifluoroethyl)-N2-methyl-4-oxoazetidine-1,2-dicarboxamide]: 10 to 100 nM.
Turning to `CN(C(=O)[C@@H]1[C@@H](Cc2ccnc(N)c2)C(=O)N1C(=O)NCc1cccc(F)c1)c1cn(C)cn1` [Compound 1-34, (2S,3R)-3-((2-aminopyridin-4-yl)methyl)-N2-(1-methyl-1H-imidazol-4-yl)-N1-((3-fluorophenyl)methyl)-N2-methyl-4-oxoazetidine-1,2-dicarboxamide], the IC50 lay within 100 to 1000 nM.
`CC[C@@H](NC(=O)N1C(=O)[C@H](Cc2ccnc(NC)c2)[C@H]1C(=O)N(C)c1ccnn1C)c1cccc(Cl)c1` [Compound 1-36, (2S,3R)-3-((2-methylaminopyridin-4-yl)methyl)-N2-(1-methyl-1H-pyrazol-5-yl)-N1-((R)-1-(3-chlorophenyl)propyl)-N2-methyl-4-oxoazetidine-1,2-dicarboxamide]: the IC50 fell in the range of 10 to 100 nM.
As for `CCNc1cc(C[C@H]2C(=O)N(C(=O)N[C@H](CC)c3cccc(Cl)c3)[C@@H]2C(=O)N(C)c2ccn(C)n2)ccn1` [Compound 1-39, (2S,3R)-3-((2-ethylaminopyridin-4-yl)methyl)-N2-(1-methyl-1H-pyrazol-3-yl)-N1-((R)-1-(3-chlorophenyl)propyl)-N2-methyl-4-oxoazetidine-1,2-dicarboxamide], the half-maximal inhibitory concentration (IC50) was 10 to 100 nM.
Turning to `CC[C@@H](NC(=O)N1C(=O)[C@H](Cc2ccnc(NC)c2)[C@H]1C(=O)N(C)c1cccs1)c1ccccc1` [Compound 1-40, (2S,3R)-3-((2-methylaminopyridin-4-yl)methyl)-N2-(thiophen-2-yl)-N1-((R)-1-phenylpropyl)-N2-methyl-4-oxoazetidine-1,2-dicarboxamide], the IC50 lay within 10 to 100 nM.
`CC[C@@H](NC(=O)N1C(=O)[C@H](Cc2ccnc(N)c2)[C@H]1C(=O)N(C)c1ccn(C)n1)c1ccn(C)n1` [Compound 1-42, (2S,3R)-3-((2-aminopyridin-4-yl)methyl)-N2-(1-methyl-1H-pyrazol-3-yl)-N1-((R)-1-(1-methyl-1H-pyrazol-3-yl)propyl)-N2-methyl-4-oxoazetidine-1,2-dicarboxamide]: the IC50 is 100 to 1000 nM.
For the molecule `CC[C@@H](NC(=O)N1C(=O)[C@H](Cc2ccnc(N)c2)[C@H]1C(=O)N(C)c1cccs1)c1ccn(C)n1` [Compound 1-49, (2S,3R)-3-((2-aminopyridin-4-yl)methyl)-N2-(thiophen-2-yl)-N1-((R)-1-(1-methyl-1H-pyrazol-3-yl)propyl)-N2-methyl-4-oxoazetidine-1,2-dicarboxamide], the IC50 fell in the range of 10 to 100 nM.
As to `CC[C@@H](NC(=O)N1C(=O)[C@H](Cc2ccnc(N)c2)[C@H]1C(=O)N(C)c1ccn(C)n1)c1cccs1` [Compound 1-53, (2S,3R)-3-((2-aminopyridin-4-yl)methyl)-N2-(1-methyl-1H-pyrazol-3-yl)-N1-((R)-1-(thiophen-2-yl)propyl)-N2-methyl-4-oxoazetidine-1,2-dicarboxamide], the 50% inhibitory concentration (IC50) fell in the range of 10 to 100 nM.
